# Patent US20220226298A1, “GPR40 AGONISTS” (Kallyope, Inc., priority 2019, published 2022)
# Biological target: T1, human GPR40 (Homo sapiens, UniProt O14842)
# T1 construct: host or cells: CHO-K1
# Test: Inositol phosphate accumulation assay (IP1 HTRF) in CHO-K1 cells expressing human GPR40
# Assay type: cell-based
# Details: 90 min stimulation
# Protocol: CHO-KI cells expressing human GPR40 were purchased from DiscoverX (95-1005C2). HEK293 cells expressing mouse FFAR1 were prepared using a mouse FFAR1 carrying plasmid purchased from OriGene Technologies (MR222997). The cells were transfected using Lipofectamine 2000 using manufacturer instructions and stable cell line was established from a single cell using geneticine selection. Assay ready frozen (ARF) cells were prepared and used throughout the study.
# The assay was performed in a 384-well plate format using IP1 assay kit from Cis-Bio. ARF cells expressing FFAR1 (mouse and human) were thawed, washed and then plated in the appropriate medium (F12 based medium for CHO hFFAR1 and DMEM based medium for HEK293 mFFAR1—both were supplemented with 10% FBS and penicillin/streptomycin). 20 μL of 3.5×10^5 cells/mL were plated on a Poly D-Lysine coated 384-well white plate. The cells were then incubated for 16 hr at 37° C./5% CO2. After 16 hr the medium was removed and 15 μL of stimulation buffer containing the test compounds was added to the cells. The plates were then incubated for 90 min at 37° C./5% CO2. 5 μL of detection buffer (prepared as described in the IP-one kit) was added to each well and the plates were incubated at RT for 1 hr.
# […] was measured using ClarioSTAR plate reader, calculating the ratio between emissions at 665 nm and 620 nm (HTRF ratio). HTRF ratio for positive (Max) and negative (Min) controls were used to normalize HTRF data and generate values for % activity. EC50 and Max activity values were determined using a standard 4-parameter fit.
# T1 sequence (O14842 whole entry): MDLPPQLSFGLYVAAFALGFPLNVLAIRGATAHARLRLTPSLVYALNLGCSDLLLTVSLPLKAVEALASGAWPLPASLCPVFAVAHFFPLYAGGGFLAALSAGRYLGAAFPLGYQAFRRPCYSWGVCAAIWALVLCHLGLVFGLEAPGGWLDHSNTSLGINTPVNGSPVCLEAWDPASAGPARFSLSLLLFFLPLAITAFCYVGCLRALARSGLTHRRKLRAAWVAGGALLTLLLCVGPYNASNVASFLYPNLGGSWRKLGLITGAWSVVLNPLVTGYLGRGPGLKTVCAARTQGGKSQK
row,EC50 [nM],SMILES
1,> 500,COc1cc(-c2cnc(C(=O)Oc3cccc([C@@H](CC(=O)O)C4CC4)c3)cn2)c(F)cn1 [Compound 23]
2,≤ 10,"COc1cc(-c2ccc(C(=O)Oc3cccc([C@H](C4CC4)[C@H](C)C(=O)O)c3)cc2CN2CCC(C)(C)C2)c(F)cn1 [Compound 33, (2S,3R)-3-cyclopropyl-3-[3-[3-[(3,3-dimethylpyrrolidin-1-yl)methyl]-4-(5-fluoro-2-methoxy-4-pyridyl)benzoyl]oxyphenyl]-2-methyl-propanoic acid]"
3,≤ 10,"COc1cc(-c2ccc(C(=O)Oc3cccc([C@H](C4CC4)[C@H](C)C(=O)OCc4oc(=O)oc4C)c3)cc2CN(C(C)C)C(C)C)c(F)cn1 [Compound 65, 3-((1R, 2S)-1-cyclopropyl-2-methyl-3-((5-methyl-2-oxo-1,3-dioxol-4-yl)methoxy)-3-oxopropyl)phenyl 3-((diisopropylamino)methyl)-4-(5-fluoro-2-methoxypyridin-4-yl)benzoate]"
4,> 500,COc1ccc(F)c(-c2ccc(C(=O)Oc3cccc([C@@H](CC(=O)O)C4CC4)c3)nc2)c1 [Compound 4]
5,≤ 10,COc1cc(-c2cc(F)c(C(=O)Oc3cccc([C@H](C4CC4)[C@@](C)(F)C(=O)O)c3)cc2CN(C(C)C)C(C)C)ccn1 [Compound 39]
6,100 to 500,"COc1cc(-c2ccc(C(=O)Oc3cccc([C@H](C4CC4)[C@H](C)C(=O)OCCP(=O)(O)O)c3)cc2CN(C(C)C)C(C)C)c(F)cn1 [Compound 68, (2-(((2S, 3R)-3-cyclopropyl-3-(3-((3-((diisopropylamino)methyl)-4-(5-fluoro-2-methoxypyridin-4-yl)benzoyl)oxy)phenyl)-2-methylpropanoyl)oxy)ethyl)phosphonic acid]"
7,≤ 10,COc1cc(-c2cc(F)c(OC(=O)c3cccc([C@H](C4CC4)[C@H](C)C(=O)O)c3)cc2CN(C(C)C)C(C)C)c(F)cn1 [Compound 60]
8,> 500,CC(c1cc(C(F)(F)F)ccc1C(F)(F)F)N1CC[C@@H](OC(=O)c2cccc([C@@H](CC(=O)O)C3CC3)c2)C1 (stereo partly shown) [Compound 48]
9,> 500,"COc1cc(-c2ccc(C(=O)Oc3cccc(C(CP(C)(=O)O)C4CC4)c3)cc2CN(C(C)C)C(C)C)c(F)cn1 (stereo not shown) [Compound 66, (2-cyclopropyl-2-(3-((3-((diisopropylamino)methyl)-4-(5-fluoro-2-methoxypyridin-4-yl)benzoyl)oxy)phenyl)ethyl)(methyl)phosphinic acid]"
10,≤ 10,COc1cc(-c2ccc(C(=O)Oc3cccc([C@H](C4CC4)[C@H](C)C(=O)O)c3)cc2)ccn1 [Compound 27]
11,10 to 100,"COc1ccc(F)c(-c2ccc(C(=O)Oc3cccc([C@@H](CC(=O)O)C4CC4)c3)cc2)c1 [Compound 1, (S)-3-cyclopropyl-3-(3-((2′-fluoro-5′-methoxy-[1,1′-biphenyl]-4-carbonyl)oxy)phenyl) propanoic acid]"
12,> 500,CCN(Cc1cc(-c2cc(OC)ncc2F)ccc1C(=O)Oc1cccc([C@@H](CC(=O)O)C2CC2)c1)C(C)C [Compound 13]
13,≤ 10,COc1cc(-c2ccc(C(=O)Oc3cccc([C@H](C4CC4)[C@H](C)C(=O)O)c3)cc2)c(F)cn1 [Compound 25]
14,10 to 100,COc1ccc(F)c(-c2ccc(C(=O)Oc3cccc([C@@H](CC(=O)O)C4CC4)c3)c(C)c2)c1 [Compound 6]
15,10 to 100,CC(c1cc(C(F)(F)F)ccc1C(F)(F)F)N1CCC(C(=O)Oc2cccc([C@@H](CC(=O)O)C3CC3)c2)CC1 (stereo partly shown) [Compound 9]

row,SMILES,EC50 [nM]
1,"CC(c1cc(C(F)(F)F)ccc1C(F)(F)F)N1CCN(C(=O)Oc2cccc([C@@H](CC(=O)O)C3CC3)c2)CC1 (stereo partly drawn) [Compound 20, (3S)-3-(3-((4-(1-(2,5-bis(trifluoromethyl)phenyl)ethyl)piperazine-1-carbonyl)oxy)phenyl)-3-cyclopropylpropanoic acid]",10 to 100
